According to PubChem BioAssay (NCI):
Where “and” joins values, the source holds several entries; their conditions need not be identical. Equal values may be shown once.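 These data come from cells grown in 96-well plates and exposed to compound for 48 hours at five concentrations. GI50 marks 50% less growth. TGI denotes the concentration required for complete inhibition of growth.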

Columns and labels:
Experiment in all cases: NCI anticancer screen, dose series, 48 h
[1] = tested on: COLO 205 colon
[2] = tested on: UACC-62 melanoma
[3] = tested on: K-562 leukemia
[4] = tested on: A549 NSCLC
[5] = tested on: MDA-MB-435
[6] = tested on: MALME-3M melanoma
[7] = tested on: CAKI-1 renal
[8] = tested on: MDA-N
[9] = tested on: SF-268 CNS
[10] = tested on: HT29 colon
[11] = tested on: TK-10 renal

Row | SMILES | TGI [1] | TGI [2] | TGI [3] | TGI [4] [µM] | TGI [5] [µM] | TGI [6] | TGI [7] | TGI [8] [µM] | TGI [9] | TGI [10] | TGI [11] [µM] | GI50 [1] [µM] | GI50 [2] [µM] | GI50 [3] [µM] | GI50 [4] [µM] | GI50 [6] [µM] | GI50 [9] [µM] | GI50 [10] [µM] | GI50 [5] [µM] | GI50 [11] [µM]
1 | c1ccc(/C(=N\Nc2nc3ccccc3[nH]2)c2ccccn2)cc1 | 3.31 µM | 6.23 µM | > 100 µM | 22.1 | 13.7 | 8.31 µM | 8.79 µM | 18.4 | > 45.9 µM | 2.69 µM | 3.82 | – | – | – | – | – | – | – | – | –
2 | COC(=O)c1c(O)ccc2c1c1c(n2CCc2ccc(OC)c(OC)c2)C(=O)c2ccccc2C1=O | 11.1 µM | 32.9 µM | > 100 µM | 47.2 | 29.2 | 29.2 µM | 38.3 µM | 25.5 | 41 µM | 10.5 µM | 57.1 | – | – | – | – | – | – | – | – | –
3 | O=C1Nc2cccc(Cl)c2/C1=C\c1cccnc1 | 15.9 µM | – | 36.5 µM | 33.6 | 19.8 | 24 µM | 24.2 µM | – | 25.6 µM | > 100 µM | 34.7 | – | – | – | – | – | – | – | – | –
4 | N#CC1(CCCI)CCCC1 | > 100 µM | 35.8 µM | > 100 µM | > 100 | – | 80.6 µM | – | – | 41.3 µM | 80.6 µM | > 100 | – | – | – | – | – | – | – | – | –
5 | N#Cc1c(-c2ccc([N+](=O)[O-])cc2)c2c([nH]c1=O)-c1ccccc1CCC2 | > 100 µM | > 100 µM | > 100 µM | > 100 | > 100 | > 100 µM | > 100 µM | > 100 | > 100 µM | > 100 µM | > 100 | – | – | – | – | – | – | – | – | –
6 | CC[C@@]1(O)CC(OC2CC(N3CCOCC3)C(O)C(C)O2)c2c(O)c3c(c(O)c2[C@H]1O)C(=O)c1cccc(O)c1C3=O (stereo partly specified) | 0.897 µM and 2.14 µM | 0.428 µM and 0.301 µM | 6.69 µM and 4.03 µM | 0.6 | 1.14 | 0.258 µM and 0.339 µM | 0.318 µM and 0.243 µM | 1.04 | 3.27 µM and 2.1 µM | 3.23 µM and 2.33 µM | 1.7 | 0.0433 | 0.0389 | 0.0426 | 0.000605 | 0.034 | 0.091 | 0.0228 | – | –
7 | CC(C)CCN(CCC(C)C)CC(=O)Nc1ccc(S(=O)(=O)c2ccc(NC(=O)CN(CCC(C)C)CCC(C)C)cc2)cc1 | – | 3.52 µM | – | 25.7 | 6.07 | 3.51 µM | – | – | 4.68 µM | 3.29 µM | 25.5 | – | 1.55 | – | 5.38 | 1.57 | 1.51 | 1.58 | 2.15 | 12.2
8 | O=C1OC(c2ccc(O)cc2)(c2ccc(O)cc2)c2ccc(Cl)c3cccc1c23 (tested in a mixture with another compound) | 9.06 µM | 21.9 µM | > 75 µM | > 75 | 18.9 | 29.1 µM | 22 µM | 25.7 | 52.8 µM | 23.9 µM | 52.6 | – | – | – | – | – | – | – | – | –
9 | C[n+]1c2ccccc2c(N=[N+]=[N-])c2ccccc21 | > 10 µM | > 10 µM | > 10 µM | > 10 | > 10 | > 10 µM | > 10 µM | – | > 10 µM | > 10 µM | > 10 | – | – | – | – | – | – | – | – | –
10 | CC(=O)OC(C(=O)O)C(OC(C)=O)C(OC(C)=O)C(OC(C)=O)C(=O)O (stereo unspecified) | > 100 µM | > 100 µM | > 100 µM | > 100 | > 100 | > 100 µM | > 100 µM | > 100 | > 100 µM | > 100 µM | > 100 | – | – | – | – | – | – | – | – | –
11 | C=C(CN(C)C)C(=O)c1ccccc1OC | 11 µM | 37 µM | > 54.1 µM | > 100 | 34.2 | 16.5 µM | 26.1 µM | 34 | 63.7 µM | 46 µM | 30.3 | – | – | – | – | – | – | – | – | –
12 | Cc1ncc(C(=O)Nc2ccc(CN3CCN(C)CC3)c(C(F)(F)F)c2)cc1C#Cc1cnc(N)c2ccc(C#N)cc12 | > 100 µM | 0.0717 µM | – | – | – | – | – | – | > 100 µM | – | 2.82 | 0.0146 | < 0.0108 | – | – | – | 0.0399 | – | – | 0.0572
13 | O=C(CSCC(=O)N/N=C\c1ccc(F)cc1F)N/N=C\c1ccc(F)cc1F | > 100 µM | > 100 µM | – | > 100 | > 100 | > 100 µM | > 100 µM | – | > 100 µM | > 100 µM | > 100 | – | – | – | – | – | – | – | – | –
14 | CCCCCCCCCCCCc1ccc(S(=O)(=O)O)cc1.[Cu+2] | > 100 µM | > 100 µM | > 100 µM | > 100 | > 100 | > 100 µM | > 100 µM | > 100 | > 100 µM | > 100 µM | > 100 | – | – | – | – | – | – | – | – | –
15 | Cc1csc2nc(-c3cccc([N+](=O)[O-])c3)c(/C=N/N=C(N)N)n12 | 3 µM | 2.8 µM | – | 3.34 | 3.03 | – | 8.71 µM | 3.04 | 3.29 µM | 3.27 µM | 3.17 | – | – | – | – | – | – | – | – | –
16 | c1ccc(CSC(SCc2ccccc2)c2cccc3ccccc23)cc1 | > 10 µM | > 10 µM | > 10 µM | > 10 | > 10 | > 10 µM | > 10 µM | > 10 | > 10 µM | > 10 µM | > 10 | – | – | – | – | – | – | – | – | –
17 | C[N+]1(C(CO)Cc2c[nH]c3ccccc23)Cc2ccccc2C1 (stereo unspecified) | > 100 µM | > 100 µM | > 100 µM | > 100 | > 100 | 81 µM | > 100 µM | > 100 | > 100 µM | > 100 µM | > 100 | – | – | – | – | – | – | – | – | –
18 | CC(C)CNC1=NCC(C)S1 (stereo unspecified) | > 100 µM | > 100 µM | > 100 µM | > 100 | > 100 | > 100 µM | > 100 µM | > 100 | > 100 µM | > 100 µM | > 100 | – | – | – | – | – | – | – | – | –
19 | O=C(O)c1cc2ccccc2c(N=Nc2ccc(S(=O)(=O)Nc3ccccn3)cc2)c1O | > 100 µM | > 100 µM | > 100 µM | > 100 | > 100 | > 100 µM | > 100 µM | > 100 | > 100 µM | > 100 µM | > 100 | – | – | – | – | – | – | – | – | –
